What was measured:
Experiment in all cases: relative viability (nuclei count vs DMSO), 5 days (fraction); higher = more cells survive
[1] = compound: COc1cc2ncn(-c3cc(OCc4ccccc4C(F)(F)F)c(C(N)=O)s3)c2cc1OC + C[C@@H](Oc1cc(-c2cnn(C3CCNCC3)c2)cnc1N)c1c(Cl)ccc(F)c1Cl [Crizotinib] (partner 1 µM)
How it was run: (§1)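 Lung cancer cell lines in 1536-well plates were dosed by pin tool the day after seeding, either with one drug alone or with a fixed anchor-drug dose plus five library-drug doses (not always all listed) in √10 steps. After 5 days, cells were fixed and their nuclei stained in one step (final 0.05% Triton X-100, 1% formaldehyde, 1 ug/ml Hoechst), then counted on 4× images. Relative viability is the nuclei count in treated wells divided by that in vehicle wells. Values are medians of duplicate plates.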

[2] = compound: COc1cc2ncn(-c3cc(OCc4ccccc4C(F)(F)F)c(C(N)=O)s3)c2cc1OC + COc1cccc2cc(-c3nc([C@H]4CC[C@H](C(=O)O)CC4)n4ncnc(N)c34)[nH]c12 [OSI-027] (partner 0.5 µM)
How it was run: as §1

[3] = compound: COc1cc2ncn(-c3cc(OCc4ccccc4C(F)(F)F)c(C(N)=O)s3)c2cc1OC + C[C@]1(O)C[C@@H](c2nc(-c3ccc4ccc(-c5ccccc5)nc4c3)c3c(N)nccn32)C1 [Linsitinib] (partner 1 µM)
How it was run: as §1

[4] = compound: COc1cc2ncn(-c3cc(OCc4ccccc4C(F)(F)F)c(C(N)=O)s3)c2cc1OC + Cc1cc(Nc2cc(N3CCN(C)CC3)nc(Sc3ccc(NC(=O)C4CC4)cc3)n2)n[nH]1 [Tozasertib] (partner 0.1 µM)
How it was run: as §1

Cell Line | relative viability ([1]; first compound 0.05 µM) | relative viability ([1]; first compound 0.1581 µM) | relative viability ([1]; first compound 0.5 µM) | relative viability ([1]; first compound 1.581 µM) | relative viability ([1]; first compound 5 µM) | relative viability ([2]; first compound 0.05 µM) | relative viability ([2]; first compound 0.1581 µM) | relative viability ([2]; first compound 0.5 µM) | relative viability ([2]; first compound 1.581 µM) | relative viability ([2]; first compound 5 µM) | relative viability ([3]; first compound 0.05 µM) | relative viability ([3]; first compound 0.1581 µM) | relative viability ([3]; first compound 0.5 µM) | relative viability ([3]; first compound 1.581 µM) | relative viability ([3]; first compound 5 µM) | relative viability ([4]; first compound 0.05 µM) | relative viability ([4]; first compound 0.1581 µM) | relative viability ([4]; first compound 0.5 µM) | relative viability ([4]; first compound 1.581 µM) | relative viability ([4]; first compound 5 µM)
NCI-H1944 | 1.32 | 1.18 | 1.1 | 0.351 | 0.113 | 0.589 | 0.396 | 0.254 | 0.14 | 0.112 | 1.2 | 1.15 | 0.923 | 0.257 | 0.171 | 0.297 | 0.3 | 0.274 | 0.23 | 0.216
HCC-78 | 0.314 | 0.345 | 0.245 | 0.257 | 0.257 | 0.444 | 0.414 | 0.343 | 0.288 | 0.244 | 0.537 | 0.597 | 0.368 | 0.315 | 0.394 | 0.517 | 0.345 | 0.325 | 0.222 | 0.292
NCI-H2405 | 0.84 | 0.682 | 0.595 | 0.357 | 0.463 | 0.647 | 0.613 | 0.384 | 0.357 | 0.268 | 0.99 | 0.757 | 0.372 | 0.424 | 0.386 | 0.88 | 0.803 | 0.368 | 0.325 | 0.327
SW 1573 | 0.786 | 0.859 | 0.514 | 0.134 | 0.293 | 0.757 | 0.606 | 0.281 | 0.129 | 0.105 | 0.733 | 0.869 | 0.514 | 0.173 | 0.275 | 0.154 | 0.179 | 0.192 | 0.174 | 0.139
EMC-BAC-2 | 0.893 | 0.855 | 0.789 | 0.439 | 0.154 | 0.37 | 0.429 | 0.29 | 0.194 | 0.172 | 0.906 | 0.843 | 0.696 | 0.509 | 0.164 | 0.332 | 0.314 | 0.223 | 0.215 | 0.245
NCI-H647 | 1.01 | 0.788 | 0.224 | 0.113 | 0.108 | 0.687 | 0.561 | 0.536 | 0.0932 | 0.0815 | 1.07 | 1.09 | 0.267 | 0.101 | 0.126 | 0.0011 | 0.324 | 0.218 | 0.125 | 0.104
LCLC-97TM1 | 0.419 | 0.331 | 0.165 | 0.152 | 0.145 | 0.529 | 0.538 | 0.301 | 0.195 | 0.175 | 0.203 | 0.182 | 0.122 | 0.141 | 0.115 | 0.254 | 0.246 | 0.148 | 0.17 | 0.162
H3255 | 0.777 | 0.981 | 0.574 | 0.238 | 0.229 | 0.599 | 0.536 | 0.485 | – | 0.34 | 0.858 | 0.962 | 0.533 | 0.248 | 0.228 | 0.563 | 0.722 | 0.451 | – | 0.41
LXF-289 | 0.8 | 0.615 | 0.453 | 0.147 | 0.0723 | 0.815 | 0.755 | 0.214 | 0.0606 | 0.0476 | 0.884 | 0.762 | 0.158 | 0.0992 | 0.0585 | 0.192 | 0.197 | 0.145 | 0.129 | 0.107
NCI-H596 | 0.959 | 0.965 | 0.991 | 0.814 | 0.401 | 0.758 | 0.759 | 0.429 | 0.222 | 0.253 | 1.08 | 1.1 | 0.87 | 0.655 | 0.351 | 0.867 | 0.843 | 0.705 | 0.383 | 0.359
LC-2-ad | 0.485 | 0.422 | 0.295 | 0.212 | 0.287 | 0.813 | 0.754 | 0.393 | 0.289 | 0.254 | 0.722 | 0.685 | 0.119 | 0.106 | 0.0972 | 0.439 | 0.512 | 0.273 | 0.359 | 0.367
SK-MES-1 | 0.971 | 0.861 | 0.627 | – | 0.476 | 0.554 | 0.602 | 0.219 | 0.129 | 0.143 | 1.03 | 1.01 | 0.745 | – | 0.362 | 0.586 | 0.631 | 0.241 | 0.174 | 0.195
A-427 | 0.917 | 0.826 | 0.587 | 0.163 | 0.124 | 0.54 | 0.339 | 0.432 | 0.158 | 0.114 | 1.14 | 1.15 | 1.03 | 0.566 | 0.179 | 0.195 | 0.188 | 0.176 | 0.162 | 0.142
NCI-H322M | 0.741 | 0.94 | 0.724 | 0.419 | 0.466 | 0.512 | 0.541 | 0.462 | 0.319 | 0.239 | 0.893 | 0.856 | 0.748 | 0.401 | 0.408 | 0.492 | 0.475 | 0.511 | 0.547 | 0.495
HCC-366 | 0.788 | 0.545 | 0.117 | 0.013 | 0.0129 | 1.1 | 0.814 | 0.182 | 0.0338 | 0.0229 | 0.837 | 0.635 | 0.114 | 0.0118 | 0.0055 | 0.101 | 0.12 | 0.0568 | 0.0457 | 0.046
NCI-H1975 | 1.04 | 0.913 | 0.462 | 0.212 | 0.2 | 0.66 | 0.547 | 0.328 | 0.109 | 0.1 | 1.01 | 0.877 | 0.531 | 0.207 | 0.196 | 0.677 | 0.453 | 0.173 | 0.138 | 0.126

From the supplement of paper PMC10307832
